Format in all cases: in vivo
Test [1] deals with Heliothis virescens (Tobacco Budworm). The experiment in a line: Comparative Heliothis virescens egg test in petri dishes on artificial diet. Particulars: 144 h, 6 days incubation, read-out: percentage of dead larvae; for pest or weed control at 0.8 ppm: concentration 0.8 ppm; for pest or weed control at 1.5 ppm: concentration 1.5 ppm; for pest or weed control at 3 ppm: concentration 3 ppm; for pest or weed control at 6 ppm: concentration 6 ppm. The procedure: This Example illustrates the pesticidal/insecticidal properties of compounds of formula (I) compared to Comparative Compound A and Comparative Compound B. Comparative Compound A and Comparative Compound B were disclosed in WO 2006/003494.
(§1) Heliothis virescens (Tobacco Budworm):
Fresh eggs (0-24 h old) on filterpaper were placed in petri dishes on top of a layer of artificial diet and treated with diluted test solutions by pipetting. After an incubation period of 6 days, samples were checked for larval mortality and growth regulation. The percentage of dead larvae was assessed.

In test [2] the test system is Diabrotica balteata (Corn Root Worm). The experiment in a line: Diabrotica balteata L2 larvae test on artificial diet in 24-well microtiter plate. Particulars: 120 h, 200 ppm (concentration in well 18 ppm), 5 days, larval mortality, growth regulation. The method, then: Diabrotica balteata (Corn Root Worm):
A 24-well microtiter plate (MTP) with artificial diet was treated with test solutions at an application rate of 200 ppm (concentration in well 18 ppm) by pipetting. After drying, the MTP's were infested with larvae (L2) (6-10 per well). After an incubation period of 5 days, samples were checked for larval mortality, and growth regulation.

For test [3], the system named is Spodoptera littoralis (Egyptian Cotton Leafworm). The experiment in a line: Spodoptera littoralis cotton leaf disc spray test. Particulars: foliar, 72 h, 200 ppm spray on cotton leaf discs, L1 larvae, mortality, feeding behavior, growth regulation 3 DAT. The text has this: Spodoptera littoralis (Egyptian Cotton Leafworm)
Cotton leaf discs were placed on agar in a 24-well microtiter plate and sprayed with test solutions at an application rate of 200 ppm. After drying, the leaf discs were infested with 5 L1 larvae. The samples were checked for mortality, feeding behavior, and growth regulation 3 days after treatment (DAT).

For test [4], the system named is Heliothis virescens (Tobacco Budworm). Description: Heliothis virescens egg test on artificial diet in 24-well microtiter plate. Particulars: 96 h, 200 ppm (concentration in well 18 ppm), eggs 0-24 h old, 4 days, egg mortality, larval mortality, growth regulation. The procedure: as §1
Eggs (0-24 h old) were placed in 24-well microtiter plate on artificial diet and treated with test solutions at an application rate of 200 ppm (concentration in well 18 ppm) by pipetting. After an incubation period of 4 days, samples were checked for egg mortality, larval mortality and growth regulation.

For test [5], the system named is Plutella xylostella (Diamond Back Moth). Description: Plutella xylostella L2 larvae test on artificial diet in 24-well microtiter plate. Particulars: 144 h, 200 ppm (concentration in well 18 ppm), 6 days, larval mortality, growth regulation. The method, then:
Plutella xylostella (Diamond Back Moth):
A 24-well microtiter plate (MTP) with artificial diet was treated with test solutions at an application rate of 200 ppm (concentration in well 18 ppm) by pipetting. After drying, the MTP's were infested with L2 larvae (7-12 per well). After an incubation period of 6 days, samples were checked for larval mortality and growth regulation.

For `O=C(Nc1cc(F)c(Cl)nc1C1CCN(C/C=C/c2ccc(Cl)cc2)CC1)c1ccnc(Cl)c1` [Compound B1, 2-chloro-N-{6-chloro-1′-[(E)-3-(4-chloro-phenyl)-allyl]-5-fluoro-1′,2′,3′,4′,5′,6′-hexahydro-[2,4′]bipyridinyl-3-yl}-isonicotinamide], in test [1], the pest or weed control at 0.8 ppm is 80%, the pest or weed control at 1.5 ppm worked out at 100%, the pest or weed control at 3 ppm stood at 100% and the pest or weed control at 6 ppm is 100%. In addition, the pest or weed control at 200 ppm in test [2] is at least 80%. The compound also showed a pest or weed control at 200 ppm in test [3] of at least 80%. In addition, the pest or weed control at 200 ppm in test [4] was at least 80%. This compound also yielded a pest or weed control at 200 ppm in test [5] of at least 80%.
For `O=C(Nc1cc(F)c(Br)nc1C1CCN(C/C=C/c2ccc(Cl)cc2)CC1)c1ccnc(Cl)c1` [Compound D3, N-{6-bromo-1′-[(E)-3-(4-chloro-phenyl)-allyl]-5-fluoro-1′,2′,3′,4′,5′,6′-hexahydro-[2,4]bipyridinyl-3-yl}-2-chloro-isonicotinamide], in test [1], the pest or weed control at 0.8 ppm worked out at 100%, the pest or weed control at 1.5 ppm was determined as 100%, the pest or weed control at 3 ppm worked out at 100% and the pest or weed control at 6 ppm came to 100%. Further, the pest or weed control at 200 ppm in test [2] is at least 80%. The pest or weed control at 200 ppm in test [3] was at least 80%. The compound further gave a pest or weed control at 200 ppm in test [4] of at least 80%. The pest or weed control at 200 ppm in test [5] is at least 80%.
For the compound `O=C(Nc1cc(Cl)c(Br)nc1C1CCN(C/C=C/c2ccc(Cl)cc2)CC1)c1ccnc(Cl)c1` [Compound E7, N-{6-bromo-1′-[(E)-3-(4-chloro-phenyl)-allyl]-5-chloro-1′,2′,3′,4′,5′,6′-hexahydro-[2,4′]bipyridinyl-3-yl}-2-chloro-isonicotinamide], the pest or weed control at 0.8 ppm in test [1] worked out at 100%. In test [1], the pest or weed control at 1.5 ppm is 100%. The pest or weed control at 3 ppm in test [1] was 100%. The pest or weed control at 6 ppm in test [1] stood at 100%. The pest or weed control at 200 ppm in test [2], in test [3], in test [4] and in test [5] was at least 80% throughout.
For the compound `O=C(Nc1cc(C(F)(F)F)c(Cl)nc1C1CCN(C/C=C/c2ccc(Cl)cc2)CC1)c1ccnc(Cl)c1` [Compound F2, 2-chloro-N-{6-chloro-1′-[(E)-3-(4-chloro-phenyl)-allyl]-5-trifluoromethyl-1′,2′,3′,4′,5′,6′-hexahydro-[2,4′]bipyridinyl-3-yl}-isonicotinamide], in test [1], the pest or weed control at 0.8 ppm is 100%, the pest or weed control at 1.5 ppm came to 100%, the pest or weed control at 3 ppm worked out at 100% and the pest or weed control at 6 ppm amounted to 100%. In test [2], this compound displayed a pest or weed control at 200 ppm of at least 80%. Also, in test [3], the pest or weed control at 200 ppm is at least 80%. For the same compound, the pest or weed control at 200 ppm in test [4] was at least 80%. Moreover, the pest or weed control at 200 ppm in test [5] was at least 80%.
With `O=C(Nc1cc(C(F)(F)F)c(Br)nc1C1CCN(C/C=C/c2ccc(Cl)cc2)CC1)c1ccnc(Cl)c1` [Compound G1, 2-chloro-N-{6-bromo-1′-[(E)-3-(4-chloro-phenyl)-allyl]-5-trifluoromethyl-1′,2′,3′,4′,5′,6′-hexahydro-[2,4′]bipyridinyl-3-yl}-isonicotinamide], in test [1], the pest or weed control at 0.8 ppm amounted to 100%, the pest or weed control at 1.5 ppm is 100%, the pest or weed control at 3 ppm amounted to 100% and the pest or weed control at 6 ppm was 100%. This compound also displayed a pest or weed control at 200 ppm in test [2] of at least 80%. The same compound registered a pest or weed control at 200 ppm in test [3] of at least 80%. Further, the pest or weed control at 200 ppm in test [4] was at least 80%. The compound further gave a pest or weed control at 200 ppm in test [5] of at least 80%.

Source of the values: patent US8193362B2 (Syngenta Crop Protection LLC, priority 2008, dated 2012).
